Reference: ChEMBL document CHEMBL3885881, “DrugMatrix”

Species: Rattus norvegicus
Assay: DrugMatrix - Regimen: Daily Repeat
Format: toxicity, organism-based, Sprague-Dawley
Design: regimen Daily Repeat, gender Male, age 6-8 weeks
Conditions: in vivo, po, route oral GAVAGE, vehicle 100 % WATER; for ABSOLUTE BASOPHIL / ABSOLUTE EOSINOPHIL / ABSOLUTE LYMPHOCYTE / ABSOLUTE MONOCYTE / ABSOLUTE SEGMENTED NEUTROPHIL / BASOPHIL / EOSINOPHIL / ERYTHROCYTE COUNT / HEMATOCRIT / HEMOGLOBIN / LEUKOCYTE COUNT / LYMPHOCYTE / MEAN CORPUSCULAR HEMOGLOBIN / MEAN CORPUSCULAR HEMOGLOBIN CONCENTRATION / MEAN CORPUSCULAR VOLUME / MONOCYTE / NEUTROPHIL / NUCLEATED RED BLOOD CELLS / PLATELET COUNT: tissue Blood; for ALANINE AMINOTRANSFERASE / ALBUMIN / ALKALINE PHOSPHATASE / ASPARTATE AMINOTRANSFERASE / BLOOD UREA NITROGEN / CARBON DIOXIDE / CHLORIDE / CHOLESTEROL / CREATINE PHOSPHOKINASE / CREATININE / GLUCOSE / LACTATE DEHYDROGENASE / LIPASE / PHOSPHORUS / POTASSIUM / SODIUM / TOTAL BILIRUBIN / TOTAL PROTEIN / URIC ACID: tissue Plasma
[1] = 28 mg/kg, 120 h, dose level Low, time 5 day
[2] = 1500 mg/kg, 72 h, dose level High, time 3 day
[3] = 1500 mg/kg, 120 h, dose level High, time 5 day

Compound: CS(=O)(=O)c1ccc([C@@H](O)[C@@H](CO)NC(=O)C(Cl)Cl)cc1 [THIAMPHENICOL]
- ABSOLUTE BASOPHIL [1]: 0 CELLS/uL
- ABSOLUTE EOSINOPHIL [1]: 95.33 CELLS/uL
- ABSOLUTE LYMPHOCYTE [1]: 6576.67 CELLS/uL
- ABSOLUTE MONOCYTE [1]: 0 CELLS/uL
- ABSOLUTE SEGMENTED NEUTROPHIL [1]: 828 CELLS/uL
- BASOPHIL [1]: 0%
- EOSINOPHIL [1]: 1.33%
- ERYTHROCYTE COUNT [1]: 5.62 x10E6/uL
- HEMATOCRIT [1]: 36.03%
- HEMOGLOBIN [1]: 13.5 G/DL
- LEUKOCYTE COUNT [1]: 7.5 x10E3/uL
- LYMPHOCYTE [1]: 87.67%
- MEAN CORPUSCULAR HEMOGLOBIN [1]: 24.03 pg
- MEAN CORPUSCULAR HEMOGLOBIN CONCENTRATION [1]: 37.47 G/DL
- MEAN CORPUSCULAR VOLUME [1]: 64.07 fL
- MONOCYTE [1]: 0%
- NEUTROPHIL [1]: 11%
- NUCLEATED RED BLOOD CELLS [1]: 0 /100WBC
- PLATELET COUNT [1]: 1264 x10E3/uL
- ALANINE AMINOTRANSFERASE [1]: 51 u/L
- ALBUMIN [1]: 4.33 G/DL
- ALKALINE PHOSPHATASE [1]: 379.67 u/L
- ASPARTATE AMINOTRANSFERASE [1]: 78 u/L
- BLOOD UREA NITROGEN [1]: 15 mg/dL
- CARBON DIOXIDE [1]: 28 mmol/L
- CHLORIDE [1]: 101 MEQ/L
- CHOLESTEROL [1]: 82.67 mg/dL
- CREATINE PHOSPHOKINASE [1]: 219 u/L
- CREATININE [1]: 0.19 mg/dL
- GLUCOSE [1]: 146.67 mg/dL
- LACTATE DEHYDROGENASE [1]: 121 u/L
- LIPASE [1]: 8.33 u/L
- PHOSPHORUS [1]: 12.2 mg/dL
- POTASSIUM [1]: 5.86 MEQ/L
- SODIUM [1]: 148.13 MEQ/L
- TOTAL BILIRUBIN [1]: 0.23 mg/dL
- TOTAL PROTEIN [1]: 6.37 G/DL
- URIC ACID [1]: 1.07 mg/dL
- ABSOLUTE BASOPHIL [2]: 0 CELLS/uL
- ABSOLUTE EOSINOPHIL [2]: 242.33 CELLS/uL
- ABSOLUTE LYMPHOCYTE [2]: 11370.67 CELLS/uL
- ABSOLUTE MONOCYTE [2]: 0 CELLS/uL
- ABSOLUTE SEGMENTED NEUTROPHIL [2]: 1353.67 CELLS/uL
- BASOPHIL [2]: 0%
- EOSINOPHIL [2]: 1.67%
- ERYTHROCYTE COUNT [2]: 4.88 x10E6/uL
- HEMATOCRIT [2]: 32.03%
- HEMOGLOBIN [2]: 12.37 G/DL
- LEUKOCYTE COUNT [2]: 12.97 x10E3/uL
- LYMPHOCYTE [2]: 87.67%
- MEAN CORPUSCULAR HEMOGLOBIN [2]: 25.37 pg
- MEAN CORPUSCULAR HEMOGLOBIN CONCENTRATION [2]: 38.6 G/DL
- MEAN CORPUSCULAR VOLUME [2]: 65.7 fL
- MONOCYTE [2]: 0%
- NEUTROPHIL [2]: 10.67%
- NUCLEATED RED BLOOD CELLS [2]: 0 /100WBC
- PLATELET COUNT [2]: 1202.33 x10E3/uL
- ALANINE AMINOTRANSFERASE [2]: 42.67 u/L
- ALBUMIN [2]: 4.27 G/DL
- ALKALINE PHOSPHATASE [2]: 298 u/L
- ASPARTATE AMINOTRANSFERASE [2]: 82 u/L
- BLOOD UREA NITROGEN [2]: 18 mg/dL
- CARBON DIOXIDE [2]: 24.33 mmol/L
- CHLORIDE [2]: 110.67 MEQ/L
- CHOLESTEROL [2]: 82.67 mg/dL
- CREATINE PHOSPHOKINASE [2]: 343.67 u/L
- CREATININE [2]: 0.16 mg/dL
- GLUCOSE [2]: 201 mg/dL
- LACTATE DEHYDROGENASE [2]: 99 u/L
- LIPASE [2]: 8.33 u/L
- PHOSPHORUS [2]: 12 mg/dL
- POTASSIUM [2]: 5.55 MEQ/L
- SODIUM [2]: 148.1 MEQ/L
- TOTAL BILIRUBIN [2]: 0.1 mg/dL
- TOTAL PROTEIN [2]: 5.8 G/DL
- URIC ACID [2]: 2.17 mg/dL
- ABSOLUTE BASOPHIL [3]: 0 CELLS/uL
- ABSOLUTE EOSINOPHIL [3]: 0 CELLS/uL
- ABSOLUTE LYMPHOCYTE [3]: 10293 CELLS/uL
- ABSOLUTE MONOCYTE [3]: 39 CELLS/uL
- ABSOLUTE SEGMENTED NEUTROPHIL [3]: 901.33 CELLS/uL
- BASOPHIL [3]: 0%
- EOSINOPHIL [3]: 0%
- ERYTHROCYTE COUNT [3]: 5.44 x10E6/uL
- HEMATOCRIT [3]: 34.1%
- HEMOGLOBIN [3]: 13.07 G/DL
- LEUKOCYTE COUNT [3]: 11.23 x10E3/uL
- LYMPHOCYTE [3]: 91.67%
- MEAN CORPUSCULAR HEMOGLOBIN [3]: 24.03 pg
- MEAN CORPUSCULAR HEMOGLOBIN CONCENTRATION [3]: 38.33 G/DL
- MEAN CORPUSCULAR VOLUME [3]: 62.67 fL
- MONOCYTE [3]: 0.33%
- NEUTROPHIL [3]: 8%
- NUCLEATED RED BLOOD CELLS [3]: 0 /100WBC
- PLATELET COUNT [3]: 1190 x10E3/uL
- ALANINE AMINOTRANSFERASE [3]: 44.33 u/L
- ALBUMIN [3]: 4.33 G/DL
- ALKALINE PHOSPHATASE [3]: 313.67 u/L
- ASPARTATE AMINOTRANSFERASE [3]: 87 u/L
- BLOOD UREA NITROGEN [3]: 21.33 mg/dL
- CARBON DIOXIDE [3]: 24.33 mmol/L
- CHLORIDE [3]: 103 MEQ/L
- CHOLESTEROL [3]: 75.67 mg/dL
- CREATINE PHOSPHOKINASE [3]: 564.67 u/L
- CREATININE [3]: 0.21 mg/dL
- GLUCOSE [3]: 159 mg/dL
- LACTATE DEHYDROGENASE [3]: 210 u/L
- LIPASE [3]: 8.33 u/L
- PHOSPHORUS [3]: 11.87 mg/dL
- POTASSIUM [3]: 6.38 MEQ/L
- SODIUM [3]: 144.57 MEQ/L
- TOTAL BILIRUBIN [3]: 0.13 mg/dL
- TOTAL PROTEIN [3]: 5.97 G/DL
- URIC ACID [3]: 1.67 mg/dL
